Our source for the IC50 values is US12692254B2, “Benzimidazole inhibitors of PAD enzymes” (BRISTOL-MYERS SQUIBB COMPANY, priority 2018, dated 2026).

Structures are written as SMILES.

In the test the target is human PAD4 (hPAD4) (Homo sapiens, UniProt Q9UM07). Put plainly: RFMS human PAD4 functional assay (rapid-fire mass spectrum). It is filed as biochemical. Particulars: 5 nM hPAD4 enzyme, 250 μM BAEE, 50 μM Calcium; 30 min preincubation, 90 min reaction at 37° C. A digest of the protocol: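 PAD4 (10 nM) preincubated 30 min with compound (top final 50 μM), then BAEE substrate added in pH 7.5 HEPES buffer with DTT, 50 μM calcium, TPEN; 90 min at 37° C. After TCA quench, citrulline derivatized with phenyl glyoxal (4 mM final, 30 min, 37° C) and quantified by RapidFire MS against internal standard.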
Sequence of human PAD4 (hPAD4) (Q9UM07 whole entry): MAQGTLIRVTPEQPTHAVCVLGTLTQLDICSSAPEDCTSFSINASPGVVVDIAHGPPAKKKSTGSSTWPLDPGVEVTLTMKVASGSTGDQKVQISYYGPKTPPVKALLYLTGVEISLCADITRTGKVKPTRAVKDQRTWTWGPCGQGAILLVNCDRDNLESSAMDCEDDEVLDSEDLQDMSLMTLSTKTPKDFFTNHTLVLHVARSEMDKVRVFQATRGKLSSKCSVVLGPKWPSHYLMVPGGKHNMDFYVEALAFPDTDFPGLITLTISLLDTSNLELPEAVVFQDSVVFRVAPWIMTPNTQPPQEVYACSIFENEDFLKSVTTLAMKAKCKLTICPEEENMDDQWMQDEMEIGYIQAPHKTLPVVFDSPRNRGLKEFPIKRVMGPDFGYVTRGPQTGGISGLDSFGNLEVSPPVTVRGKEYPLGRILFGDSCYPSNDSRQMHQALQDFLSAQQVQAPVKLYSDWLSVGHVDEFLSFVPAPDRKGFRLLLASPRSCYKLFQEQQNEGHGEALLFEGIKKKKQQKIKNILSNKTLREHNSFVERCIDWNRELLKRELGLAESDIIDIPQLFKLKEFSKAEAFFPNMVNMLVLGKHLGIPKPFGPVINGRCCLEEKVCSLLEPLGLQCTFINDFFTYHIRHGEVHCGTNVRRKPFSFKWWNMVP

Consider `COc1cc(C(=O)N2C[C@H]3CC[C@@H]2[C@@H]3N)cc2nc(-c3cc4cc(Cl)ccc4n3C)n(CC3CN(c4ccnc(C#N)n4)C3)c12` [Example 42, 4-[3-({5-[(1R,4R,7R)-7-amino-2-azabicyclo[2.2.1]heptane-2-carbonyl]-2-(5-chloro-1-methyl-1H-indol-2-yl)-7-methoxy-1H-1,3-benzodiazol-1-yl}methyl)azetidin-1-yl]pyrimidine-2-carbonitrile], for which the IC50 – broadly, the concentration needed to halve the response being measured – stood at 102 nM.

On to `COc1cc(C(=O)N2C[C@H]3CC[C@@H]2[C@@H]3N)cc2nc(-c3cc4ccccc4n3CC3CC3)n(CC3CN(c4ccnc(C)n4)C3)c12` [Example 66, (1R,4R,7R)-2-{2-[1-(cyclopropylmethyl)-1H-indol-2-yl]-7-methoxy-1-{[1-(2-methylpyrimidin-4-yl)azetidin-3-yl]methyl}-1H-1,3-benzodiazole-5-carbonyl}-2-azabicyclo[2.2.1]heptan-7-amine], for which the IC50 came to 39 nM.

Regarding `COc1cc(C(=O)N2C[C@H](N)C[C@@H](F)C2)cc2nc(-c3cc4ccccc4n3CC3CC3)n(CC3CN(C(=O)c4cc(C#N)ccc4F)C3)c12` [Example 152, 3-[3-({5-[(3R,5R)-3-amino-5-fluoropiperidine-1-carbonyl]-2-[1-(cyclopropylmethyl)-1H-indol-2-yl]-7-methoxy-1H-1,3-benzodiazol-1-yl}methyl)azetidine-1-carbonyl]-4-fluorobenzonitrile], the IC50 stood at 21 nM.

Take `COc1cc(C(=O)N2C[C@H]3CC[C@@H]2[C@@H]3N)cc2nc(-c3cc4cccnc4n3CC3CC3)n(CC3CN(c4cnc(C#N)nc4)C3)c12` [Example 17, 5-[3-({5-[(1R,4R,7R)-7-amino-2-azabicyclo[2.2.1]heptane-2-carbonyl]-2-[1-(cyclopropylmethyl)-1H-pyrrolo[2,3-b]pyridin-2-yl]-7-methoxy-1H-1,3-benzodiazol-1-yl}methyl)azetidin-1-yl]pyrimidine-2-carbonitrile]: the IC50 was determined as 50 nM.

For the compound `COc1cc(C(=O)N2CC3CCC2[C@@H]3N)cc2nc(-c3cc4cccnc4n3CC3CC3)n([C@H]3C[C@H](NC(C)=O)C3)c12` (stereo partly drawn) [Example 302, N-[(1r,3r)-3-{5-[(1R,4R,7R)-7-amino-2-azabicyclo[2.2.1]heptane-2-carbonyl]-2-[1-(cyclopropylmethyl)-1H-pyrrolo[2,3-b]pyridin-2-yl]-7-methoxy-1H-1,3-benzodiazol-1-yl)cyclobutyl]acetamide], the IC50 stood at 1210 nM.

Regarding `COc1ccc(-n2cc(Cn3c(-c4cc5ccccc5n4CC4CC4)nc4cc(C(=O)N5CC6CCC5[C@@H]6N)cc(OC)c43)cn2)cn1` (stereo partly drawn) [Example 354, (7R)-2-{2-[1-(cyclopropylmethyl)-1H-indol-2-yl]-7-methoxy-1-{[1-(6-methoxypyridin-3-yl)-1H pyrazol-4-yl]methyl}-1H-1,3-benzodiazole-5-carbonyl}-2-azabicyclo[2.2.1]heptan-7-amine], the half-inhibitory concentration (IC50) is 22 nM.

In the case of `COc1cc(C(=O)N2C[C@H]3CC[C@@H]2[C@@H]3N)cc2nc(-c3cc4ccc(Cl)cc4n3CC3CC3)n(CC3CN(c4ccnc(C5CC5)n4)C3)c12` [Example 53, (1R,4R,7R)-2-{2-[6-chloro-1-(cyclopropylmethyl)-1H-indol-2-yl]-1-{[1-(2-cyclopropylpyrimidin-4-yl)azetidin-3-yl]methyl}-7-methoxy-1H-1,3-benzodiazole-5-carbonyl}-2-azabicyclo[2.2.1]heptan-7-amine], the IC50 is 157 nM.

On to `COc1cc(C(=O)N2CC3CCC2[C@@H]3N)cc2nc(-c3cc4ccccc4n3CC3CC3)n(Cc3ccn(C)n3)c12` (stereo partly drawn) [Example 498, (7R)-2-{2-[1-(cyclopropylmethyl)-1H-indol-2-yl]-7-methoxy-1-[(1-methyl-1H-pyrazol-3-yl)methyl]-1H-1,3-benzodiazole-5-carbonyl}-2-azabicyclo[2.2.1]heptan-7-amine], for which the IC50 amounted to 92 nM.
